According to ChEMBL document CHEMBL3885881, “DrugMatrix”:

Organism: Rattus norvegicus
Experiment: DrugMatrix - Regimen: Daily Repeat
Type: toxicity, organism-based, Sprague-Dawley
Design: regimen Daily Repeat, gender Male, age 6-8 weeks
Settings: in vivo, po, route oral GAVAGE, vehicle .5 % CMC; for ABSOLUTE BASOPHIL / ABSOLUTE EOSINOPHIL / ABSOLUTE LYMPHOCYTE / ABSOLUTE MONOCYTE / ABSOLUTE SEGMENTED NEUTROPHIL / BASOPHIL / EOSINOPHIL / ERYTHROCYTE COUNT / HEMATOCRIT / HEMOGLOBIN / LEUKOCYTE COUNT / LYMPHOCYTE / MEAN CORPUSCULAR HEMOGLOBIN / MEAN CORPUSCULAR HEMOGLOBIN CONCENTRATION / MONOCYTE / NEUTROPHIL / NUCLEATED RED BLOOD CELLS / PLATELET COUNT: tissue Blood; for ALANINE AMINOTRANSFERASE / ALBUMIN / ALKALINE PHOSPHATASE / ASPARTATE AMINOTRANSFERASE / BLOOD UREA NITROGEN / CARBON DIOXIDE / CHLORIDE / CHOLESTEROL / CREATININE / GLUCOSE / LACTATE DEHYDROGENASE / LIPASE / PHOSPHORUS / POTASSIUM / SODIUM / TOTAL BILIRUBIN / TOTAL PROTEIN / URIC ACID: tissue Plasma
[1] = 50 mg/kg, 72 h, dose level Low, time 3 day
[2] = 50 mg/kg, 120 h, dose level Low, time 5 day
[3] = 600 mg/kg, 72 h, dose level High, time 3 day
[4] = 600 mg/kg, 120 h, dose level High, time 5 day

In the case of N[C@@H]1[C@H]2CN(c3nc4c(cc3F)c(=O)c(C(=O)O)cn4-c3ccc(F)cc3F)C[C@@H]12 [TROVAFLOXACIN], the “ABSOLUTE BASOPHIL” value [1] is reported as 0 CELLS/uL, the “ABSOLUTE EOSINOPHIL” value [1] is reported as 332.33 CELLS/uL and the “ABSOLUTE LYMPHOCYTE” value [1] is reported as 13247 CELLS/uL. For the same compound, the “ABSOLUTE MONOCYTE” value [1] was 338.33 CELLS/uL, the “ABSOLUTE SEGMENTED NEUTROPHIL” value [1] was 2282.33 CELLS/uL and the BASOPHIL [1] was 0%. For the same compound, the EOSINOPHIL [1] was 2%, the “ERYTHROCYTE COUNT” value [1] was 5.64 x10E6/uL and the HEMATOCRIT [1] was 34.17%. The HEMOGLOBIN [1] was 12.5 G/DL, the “LEUKOCYTE COUNT” value [1] was 16.2 x10E3/uL and the LYMPHOCYTE [1] was 82%. For the same compound, the “MEAN CORPUSCULAR HEMOGLOBIN” value [1] was 22.13 pg, the “MEAN CORPUSCULAR HEMOGLOBIN CONCENTRATION” value [1] was 36.57 G/DL and the MONOCYTE [1] was 2%. For the same compound, the NEUTROPHIL [1] was 14%, the “NUCLEATED RED BLOOD CELLS” value [1] was 0 /100WBC and the “PLATELET COUNT” value [1] was 1160 x10E3/uL. For the same compound, the “ALANINE AMINOTRANSFERASE” value [1] was 50.67 u/L, the ALBUMIN [1] was 4.23 G/DL and the “ALKALINE PHOSPHATASE” value [1] was 421 u/L. The “ASPARTATE AMINOTRANSFERASE” value [1] was 75.33 u/L, the “BLOOD UREA NITROGEN” value [1] was 16 mg/dL and the “CARBON DIOXIDE” value [1] was 27 mmol/L. For the same compound, the CHLORIDE [1] was 102.33 MEQ/L, the CHOLESTEROL [1] was 86.33 mg/dL and the CREATININE [1] was 0.17 mg/dL. The GLUCOSE [1] was 151 mg/dL, the “LACTATE DEHYDROGENASE” value [1] was 114.67 u/L and the LIPASE [1] was 9.33 u/L. It also gave a PHOSPHORUS [1] of 13.33 mg/dL, a POTASSIUM [1] of 6.87 MEQ/L and an SODIUM [1] of 148.2 MEQ/L. The “TOTAL BILIRUBIN” value [1] was 0.17 mg/dL, the “TOTAL PROTEIN” value [1] was 6.3 G/DL and the “URIC ACID” value [1] was 1.47 mg/dL. For the same compound, the “ABSOLUTE BASOPHIL” value [2] was 0 CELLS/uL, the “ABSOLUTE EOSINOPHIL” value [2] was 225.67 CELLS/uL and the “ABSOLUTE LYMPHOCYTE” value [2] was 14834.67 CELLS/uL. For the same compound, the “ABSOLUTE MONOCYTE” value [2] was 380.67 CELLS/uL, the “ABSOLUTE SEGMENTED NEUTROPHIL” value [2] was 2392.33 CELLS/uL and the BASOPHIL [2] was 0%. For the same compound, the EOSINOPHIL [2] was 1.33%, the “ERYTHROCYTE COUNT” value [2] was 5.73 x10E6/uL and the HEMATOCRIT [2] was 34.4%. For the same compound, the HEMOGLOBIN [2] was 12.63 G/DL, the “LEUKOCYTE COUNT” value [2] was 17.83 x10E3/uL and the LYMPHOCYTE [2] was 82.67%. For the same compound, the “MEAN CORPUSCULAR HEMOGLOBIN” value [2] was 22.13 pg, the “MEAN CORPUSCULAR HEMOGLOBIN CONCENTRATION” value [2] was 36.73 G/DL and the MONOCYTE [2] was 2%. The NEUTROPHIL [2] was 14%, the “NUCLEATED RED BLOOD CELLS” value [2] was 0 /100WBC and the “PLATELET COUNT” value [2] was 1198 x10E3/uL. For the same compound, the “ALANINE AMINOTRANSFERASE” value [2] was 44.67 u/L, the ALBUMIN [2] was 4 G/DL and the “ALKALINE PHOSPHATASE” value [2] was 375.33 u/L. For the same compound, the “ASPARTATE AMINOTRANSFERASE” value [2] was 95 u/L, the “BLOOD UREA NITROGEN” value [2] was 15.33 mg/dL and the “CARBON DIOXIDE” value [2] was 27.67 mmol/L. It also gave a CHLORIDE [2] of 100.33 MEQ/L, a CHOLESTEROL [2] of 77.67 mg/dL and a CREATININE [2] of 0.14 mg/dL. The GLUCOSE [2] was 165.33 mg/dL, the “LACTATE DEHYDROGENASE” value [2] was 482.33 u/L and the LIPASE [2] was 9 u/L. It also gave a PHOSPHORUS [2] of 13.63 mg/dL, a POTASSIUM [2] of 6.38 MEQ/L and an SODIUM [2] of 144.47 MEQ/L. For the same compound, the “TOTAL BILIRUBIN” value [2] was 0.13 mg/dL, the “TOTAL PROTEIN” value [2] was 5.9 G/DL and the “URIC ACID” value [2] was 2.13 mg/dL. For the same compound, the “ABSOLUTE BASOPHIL” value [3] was 0 CELLS/uL, the “ABSOLUTE EOSINOPHIL” value [3] was 206 CELLS/uL and the “ABSOLUTE LYMPHOCYTE” value [3] was 11774.33 CELLS/uL. For the same compound, the “ABSOLUTE MONOCYTE” value [3] was 306 CELLS/uL, the “ABSOLUTE SEGMENTED NEUTROPHIL” value [3] was 3013.67 CELLS/uL and the BASOPHIL [3] was 0%. The EOSINOPHIL [3] was 1.33%, the “ERYTHROCYTE COUNT” value [3] was 5.75 x10E6/uL and the HEMATOCRIT [3] was 34.53%. For the same compound, the HEMOGLOBIN [3] was 12.7 G/DL, the “LEUKOCYTE COUNT” value [3] was 15.3 x10E3/uL and the LYMPHOCYTE [3] was 78.33%. The “MEAN CORPUSCULAR HEMOGLOBIN” value [3] was 22.13 pg, the “MEAN CORPUSCULAR HEMOGLOBIN CONCENTRATION” value [3] was 36.77 G/DL and the MONOCYTE [3] was 2%. For the same compound, the NEUTROPHIL [3] was 18.33%, the “NUCLEATED RED BLOOD CELLS” value [3] was 0 /100WBC and the “PLATELET COUNT” value [3] was 1258 x10E3/uL. The “ALANINE AMINOTRANSFERASE” value [3] was 35.33 u/L, the ALBUMIN [3] was 4.27 G/DL and the “ALKALINE PHOSPHATASE” value [3] was 290.67 u/L. For the same compound, the “ASPARTATE AMINOTRANSFERASE” value [3] was 69.67 u/L, the “BLOOD UREA NITROGEN” value [3] was 19.67 mg/dL and the “CARBON DIOXIDE” value [3] was 25.33 mmol/L. It also gave a CHLORIDE [3] of 106.33 MEQ/L, a CHOLESTEROL [3] of 81.33 mg/dL and a CREATININE [3] of 0.16 mg/dL. The GLUCOSE [3] was 145 mg/dL, the “LACTATE DEHYDROGENASE” value [3] was 197 u/L and the LIPASE [3] was 9.33 u/L. The PHOSPHORUS [3] was 13.8 mg/dL, the POTASSIUM [3] was 6.71 MEQ/L and the SODIUM [3] was 151.87 MEQ/L. The “TOTAL BILIRUBIN” value [3] was 0.17 mg/dL, the “TOTAL PROTEIN” value [3] was 6.43 G/DL and the “URIC ACID” value [3] was 1.63 mg/dL. The “ABSOLUTE BASOPHIL” value [4] was 0 CELLS/uL, the “ABSOLUTE EOSINOPHIL” value [4] was 229.8 CELLS/uL and the “ABSOLUTE LYMPHOCYTE” value [4] was 12826.8 CELLS/uL. For the same compound, the “ABSOLUTE MONOCYTE” value [4] was 343 CELLS/uL, the “ABSOLUTE SEGMENTED NEUTROPHIL” value [4] was 1100.4 CELLS/uL and the BASOPHIL [4] was 0%. For the same compound, the EOSINOPHIL [4] was 1.6%, the “ERYTHROCYTE COUNT” value [4] was 5.94 x10E6/uL and the HEMATOCRIT [4] was 35.56%. For the same compound, the HEMOGLOBIN [4] was 12.98 G/DL, the “LEUKOCYTE COUNT” value [4] was 14.5 x10E3/uL and the LYMPHOCYTE [4] was 88.4%. For the same compound, the “MEAN CORPUSCULAR HEMOGLOBIN” value [4] was 21.88 pg, the “MEAN CORPUSCULAR HEMOGLOBIN CONCENTRATION” value [4] was 36.5 G/DL and the MONOCYTE [4] was 2.4%. The NEUTROPHIL [4] was 7.6%, the “NUCLEATED RED BLOOD CELLS” value [4] was 0 /100WBC and the “PLATELET COUNT” value [4] was 1294.2 x10E3/uL. The “ALANINE AMINOTRANSFERASE” value [4] was 42 u/L, the ALBUMIN [4] was 4.16 G/DL and the “ALKALINE PHOSPHATASE” value [4] was 348.4 u/L. The “ASPARTATE AMINOTRANSFERASE” value [4] was 67.4 u/L, the “BLOOD UREA NITROGEN” value [4] was 17.8 mg/dL and the “CARBON DIOXIDE” value [4] was 29.6 mmol/L. For the same compound, the CHLORIDE [4] was 102 MEQ/L, the CHOLESTEROL [4] was 83 mg/dL and the CREATININE [4] was 0.15 mg/dL. The GLUCOSE [4] was 156 mg/dL, the “LACTATE DEHYDROGENASE” value [4] was 129.8 u/L and the LIPASE [4] was 9.8 u/L. For the same compound, the PHOSPHORUS [4] was 14.22 mg/dL, the POTASSIUM [4] was 6.78 MEQ/L and the SODIUM [4] was 146.28 MEQ/L. For the same compound, the “TOTAL BILIRUBIN” value [4] was 0.14 mg/dL, the “TOTAL PROTEIN” value [4] was 6 G/DL and the “URIC ACID” value [4] was 1.88 mg/dL.
